Test results taken from ChEMBL document CHEMBL4229457, “Mechanism underlying inhibitory effect of six dicaffeoylquinic acid isomers on melanogenesis and the computational molecular modeling studies” (Bioorg Med Chem, 2018).
Activity calls are given as the source filed them. No cut-off for these calls is given here.

Columns and labels:
[1] = test system: B16-F1; assay: Cytotoxicity against mouse B16-F1 cells assessed as reduction in cell viability at 25 uM after 72 hrs by MTT assay; type: cell-based; conditions: b16-f1, 72 h
[2] = test system: B16-F1; assay: Inhibition of alpha-MSH-stimulated melanogenesis in mouse B16-F1 cells assessed as reduction in intracellular melanin production at 25 uM after 72 hrs relative to control; type: functional; conditions: B16-F1, 72 h
[3] = test system: B16-F1; assay: Inhibition of adenylate cyclase in alpha-MSH-stimulated mouse B16-F1 cells assessed as reduction in cAMP-CREB signaling pathway-mediated TYR expression level at 25 uM after 48 to 72 hrs by Western blot analysis; type: cell-based
[4] = test system: B16-F1; assay: Inhibition of adenylate cyclase in alpha-MSH-stimulated mouse B16-F1 cells assessed as reduction in cAMP-CREB signaling pathway-mediated DCT expression level at 25 uM after 48 to 72 hrs by Western blot analysis; type: cell-based
[5] = target: T1, Tyrosinase (Mus musculus) (UniProt P11344); conditions: at 25 µM
T1 sequence (whole entry): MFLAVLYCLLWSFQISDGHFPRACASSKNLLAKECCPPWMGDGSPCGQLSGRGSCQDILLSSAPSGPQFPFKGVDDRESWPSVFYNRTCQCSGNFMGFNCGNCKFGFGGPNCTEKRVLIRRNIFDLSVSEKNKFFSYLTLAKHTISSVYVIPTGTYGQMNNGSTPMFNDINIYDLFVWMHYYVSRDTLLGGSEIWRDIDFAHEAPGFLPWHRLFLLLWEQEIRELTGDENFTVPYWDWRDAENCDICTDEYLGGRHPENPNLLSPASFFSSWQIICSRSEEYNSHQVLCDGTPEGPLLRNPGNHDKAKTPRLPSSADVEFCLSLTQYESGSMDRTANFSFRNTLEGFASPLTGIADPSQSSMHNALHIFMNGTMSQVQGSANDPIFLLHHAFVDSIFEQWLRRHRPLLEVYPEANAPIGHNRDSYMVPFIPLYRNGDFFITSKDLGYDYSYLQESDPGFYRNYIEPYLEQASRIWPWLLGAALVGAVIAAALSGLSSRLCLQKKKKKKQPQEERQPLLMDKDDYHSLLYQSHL
Description: Inhibition of tyrosinase in mouse B16-F1 cell lysates assessed as reduction in melanin production at 25 uM using L-DOPA as substrate incubated for 30 mins followed by substrate addition measured after 30 mins

[6] = Inhibition of melanogenesis in HEMn assessed as reduction in intracellular melanin production at 1 uM after 72 hrs relative to control; type: functional; conditions: Homo sapiens
[7] = test system: B16-F1; assay: Inhibition of adenylate cyclase in alpha-MSH-stimulated mouse B16-F1 cells assessed as reduction in cAMP-CREB signaling pathway-mediated TRP1 expression level at 25 uM after 48 to 72 hrs by Western blot analysis; type: cell-based
[8] = test system: B16-F1; assay: Inhibition of adenylate cyclase in alpha-MSH-stimulated mouse B16-F1 cells assessed as reduction in cAMP-CREB signaling pathway-mediated MITF expression level at 25 uM after 48 to 72 hrs by Western blot analysis; type: cell-based
[9] = test system: B16-F1; assay: Inhibition of adenylate cyclase in alpha-MSH-stimulated mouse B16-F1 cells assessed as reduction in CREB phosphorylation at 25 uM measured up to 360 mins by Western blot analysis; type: cell-based
[10] = species on record: Mus musculus; assay: Inhibition of adenylate cyclase in mouse B16-F1 cell lysates assessed as reduction in forskolin-induced cAMP levels incubated for 6 hrs followed by forskolin stimulation measured after 30 mins by immuno assay
[11] = species on record: Mus musculus; assay: Inhibition of adenylate cyclase in mouse B16-F1 cell lysates assessed as reduction in alpha-MSH-induced cAMP levels incubated for 6 hrs followed by forskolin stimulation measured after 30 mins by immuno assay
[12] = test system: B16-F1; assay: Downregulation of adenylate cyclase protein expression level in alpha-MSH-stimulated mouse B16-F1 cells at 25 uM by Western blot analysis; type: functional, cell-based
[13] = Inhibition of melanogenesis in HEMn assessed as reduction in intracellular melanin production at 5 uM after 72 hrs relative to control; type: functional; conditions: Homo sapiens
[14] = Inhibition of melanogenesis in HEMn assessed as reduction in intracellular melanin production at 10 uM after 72 hrs relative to control; type: functional; conditions: Homo sapiens
[15] = Inhibition of melanogenesis in HEMn assessed as reduction in intracellular melanin production at 25 uM after 72 hrs relative to control; type: functional; conditions: Homo sapiens
[16] = target: T2, Tyrosinase (Homo sapiens) (UniProt P14679); assay: Inhibition of tyrosinase in HEMn lysates assessed as reduction in melanin production using L-DOPA as substrate incubated for 30 mins followed by substrate addition measured after 30 mins
T2 sequence (whole entry): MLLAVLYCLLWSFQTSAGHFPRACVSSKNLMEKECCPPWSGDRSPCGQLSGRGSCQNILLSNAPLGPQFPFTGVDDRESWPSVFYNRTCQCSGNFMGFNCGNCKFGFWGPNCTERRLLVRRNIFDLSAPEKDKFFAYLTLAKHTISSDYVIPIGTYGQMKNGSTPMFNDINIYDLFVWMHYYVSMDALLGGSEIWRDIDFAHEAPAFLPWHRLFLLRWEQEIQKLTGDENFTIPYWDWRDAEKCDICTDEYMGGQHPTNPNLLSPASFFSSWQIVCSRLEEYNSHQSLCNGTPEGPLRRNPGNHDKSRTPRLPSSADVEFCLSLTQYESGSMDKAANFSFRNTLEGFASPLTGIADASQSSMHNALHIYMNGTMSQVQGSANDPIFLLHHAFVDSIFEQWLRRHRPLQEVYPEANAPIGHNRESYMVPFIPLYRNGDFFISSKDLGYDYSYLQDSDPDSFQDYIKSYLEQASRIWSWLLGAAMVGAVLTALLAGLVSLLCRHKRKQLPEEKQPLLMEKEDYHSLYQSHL

Row | SMILES | inhibition [5] | inhibition [10] | inhibition [11] | inhibition [16] | Activity [1] | inhibition at 25 µM [2] [%] | inhibition [3] | inhibition [4] | inhibition at 1 µM [6] [%] | inhibition [7] | inhibition [8] | inhibition [9] | Activity [12] | inhibition at 5 µM [13] [%] | inhibition at 10 µM [14] [%] | inhibition at 25 µM [15] [%]
1 | O=C(/C=C/c1ccc(O)c(O)c1)OC1[C@H](O)CC(OC(=O)/C=C/c2ccc(O)c(O)c2)(C(=O)O)C[C@@H]1O (stereo not given in full) | > 20% |  |  |  | Non-Toxic | 18 | 92% | Active |  |  |  |  |  |  |  | 
2 | O=C(/C=C/c1ccc(O)c(O)c1)O[C@H]1[C@H](O)C[C@@](O)(C(=O)O)C[C@H]1OC(=O)/C=C/c1ccc(O)c(O)c1 | > 20% | Dose-dependent effect | Dose-dependent effect | Dose-dependent effect | Non-Toxic | 84 | Active | Active | 7.7 | Active | 91% | Active | inactive | 11.2 | 25.8 | 51.2
3 | O=C(/C=C/c1ccc(O)c(O)c1)O[C@@H]1[C@H](O)C[C@@](O)(C(=O)O)C[C@H]1OC(=O)/C=C/c1ccc(O)c(O)c1 | > 20% |  |  |  | Non-Toxic | 26 | Active | Active |  |  |  |  |  |  |  | 
4 | O=C(/C=C/c1ccc(O)c(O)c1)O[C@@H]1C[C@](O)(C(=O)O)C[C@@H](OC(=O)/C=C/c2ccc(O)c(O)c2)[C@H]1O | > 20% |  |  |  | Non-Toxic | 26 | Active | Active |  | Active | Active |  |  |  |  | 

More lines, main results first:

Row | inhibition [5] | inhibition [10] | inhibition [11] | inhibition [16] | SMILES | Activity [1] | inhibition at 25 µM [2] [%] | inhibition [3] | inhibition [4] | inhibition at 1 µM [6] [%] | inhibition [7] | inhibition [8] | inhibition [9] | Activity [12] | inhibition at 5 µM [13] [%] | inhibition at 10 µM [14] [%] | inhibition at 25 µM [15] [%]
5 | > 20% |  |  |  | O=C(/C=C/c1ccc(O)c(O)c1)O[C@@H]1C[C@@](OC(=O)/C=C/c2ccc(O)c(O)c2)(C(=O)O)C[C@@H](O)[C@@H]1O [CYNARIN] | Non-Toxic | 61 | 72% | Active |  |  |  |  |  |  |  | 
6 | Active |  |  |  | OC[C@H]1O[C@@H](Oc2ccc(O)cc2)[C@H](O)[C@@H](O)[C@@H]1O [ARBUTIN] |  | 34 |  |  |  |  |  |  |  |  |  | 
7 | > 20% |  |  |  | O=C(/C=C/c1ccc(O)c(O)c1)O[C@H]1C[C@@](OC(=O)/C=C/c2ccc(O)c(O)c2)(C(=O)O)C[C@H](O)[C@@H]1O | Non-Toxic | 26 | 66% | Active |  |  |  |  |  |  |  | 
